T/C data for 26 compounds are collected here from PubChem BioAssay AID330 (DTP/NCI, 2004).

The test has as its system P388 leukemia ip, CD2F1 mice, survival T/C. The test can be described thus: NCI In Vivo Anticancer Drug Screen. Data for tumor model P388 Leukemia (intraperitoneal) in CD2F1 (CDF1) mice. Conditions: endpoint: median survival time, higher = longer survival. Summed up:
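Mice carrying the transplanted tumor received test compound or vehicle. Survival was recorded in each group, and the value is the treated-group measurement divided by that of the vehicle-treated control group.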

The mark [1] stands for this setting: dose: 100.0 mg/kg/injection, schedule: Q01DX001 (ip), vehicle: saline with Tween-80.
Where [2] appears, read: dose: 200.0 mg/kg/injection, schedule: Q01DX001 (ip), vehicle: saline with Tween-80.
Where [3] appears, read: dose: 400.0 mg/kg/injection, schedule: Q01DX001 (ip), vehicle: saline with Tween-80.
Setting [4] is: dose: 60.0 mg/kg/injection, schedule: Q01DX005 (ip), vehicle: saline with Tween-80.
Setting [5] is: dose: 120.0 mg/kg/injection, schedule: Q01DX005 (ip), vehicle: saline with Tween-80.
Setting [6] is: dose: 240.0 mg/kg/injection, schedule: Q01DX005 (ip), vehicle: saline with Tween-80.
Setting [7] is: dose: 50.0 mg/kg/injection, schedule: Q01DX005 (ip), vehicle: Klucel (hydroxypropylcellulose) (HPC).
Setting [8] is: dose: 100.0 mg/kg/injection, schedule: Q01DX005 (ip), vehicle: Klucel (hydroxypropylcellulose) (HPC).
Setting [9] is: dose: 200.0 mg/kg/injection, schedule: Q01DX005 (ip), vehicle: Klucel (hydroxypropylcellulose) (HPC).
The mark [10] stands for this setting: dose: 60.0 mg/kg/injection, schedule: Q01DX005 (ip), vehicle: Klucel (hydroxypropylcellulose) (HPC).
Setting [11] is: dose: 120.0 mg/kg/injection, schedule: Q01DX005 (ip), vehicle: Klucel (hydroxypropylcellulose) (HPC).

Where “and” joins values, the source holds several entries; their conditions need not be identical. Identical values can stand only once. Toxic doses and inconclusive results are not listed. Peptide text beside a SMILES is read from it.

`C/C=C/c1cc(OC)c2c(c1)[C@H](C)C(c1ccc3c(c1)OCO3)O2` (stereo partly specified): the T/C is, setting by setting: (dose: 37.5 mg/kg/injection, schedule: Q01DX005 (ip), vehicle: Klucel (hydroxypropylcellulose) (HPC)) 97 % of control; (dose: 75.0 mg/kg/injection, schedule: Q01DX005 (ip), vehicle: Klucel (hydroxypropylcellulose) (HPC)) 86 % of control; (dose: 150.0 mg/kg/injection, schedule: Q01DX005 (ip), vehicle: Klucel (hydroxypropylcellulose) (HPC)) 88 % of control; (dose: 300.0 mg/kg/injection, schedule: Q01DX005 (ip), vehicle: Klucel (hydroxypropylcellulose) (HPC)) 91 % of control.
Turning to `CCCOc1ccc2c(NCCCCNc3c4ccccc4nc4cc(OCCC)ccc34)c3ccccc3nc2c1`, the T/C (dose: 0.62 mg/kg/injection, schedule: Q01DX009 (ip), vehicle: other) was 98 % of control; the T/C (dose: 1.25 mg/kg/injection, schedule: Q01DX009 (ip), vehicle: other) was 109 % of control; the T/C (dose: 2.5 mg/kg/injection, schedule: Q01DX009 (ip), vehicle: other) is 98 % of control; the T/C (dose: 5.0 mg/kg/injection, schedule: Q01DX009 (ip), vehicle: other) is 107 % of control; the T/C (dose: 10.0 mg/kg/injection, schedule: Q01DX009 (ip), vehicle: other) was 107 % of control.
For `COC(=O)c1c(-c2ccccc2)c(-c2ccccc2)nn(-c2ccccc2)c1=O`, the T/C was 100 % of control and 102 % of control (dose: 50.0 mg/kg/injection, schedule: Q01DX001 (ip), vehicle: saline with Tween-80); 99 % of control and 100 % of control under setting [1]; 92 % of control and 97 % of control under setting [2]; 87 % of control and 90 % of control under setting [3].
For the compound `N#Cc1c(N)nc2c(c1N)CC(CCl)O2` (stereo unspecified), the T/C (dose: 50.0 mg/kg/injection, schedule: Q01DX009 (ip), vehicle: saline with Tween-80) was 94 % of control; the T/C (dose: 100.0 mg/kg/injection, schedule: Q01DX009 (ip), vehicle: saline with Tween-80) is 96 % of control; the T/C (dose: 200.0 mg/kg/injection, schedule: Q01DX009 (ip), vehicle: saline with Tween-80) is 87 % of control.
On to `O=C(C(=O)c1ccccn1)c1ccccn1`, for which the T/C was 100 % of control (dose: 50.0 mg/kg/injection, schedule: Q04DX003 (ip), vehicle: saline with Tween-80); 105 % of control (dose: 100.0 mg/kg/injection, schedule: Q04DX003 (ip), vehicle: saline with Tween-80); 109 % of control (dose: 200.0 mg/kg/injection, schedule: Q04DX003 (ip), vehicle: saline with Tween-80); 100 % of control (dose: 400.0 mg/kg/injection, schedule: Q04DX003 (ip), vehicle: saline with Tween-80).
Regarding `CCOc1ccc(C(c2ccc(OCC)cc2)C(C)C)cc1`, the T/C (dose: 50.0 mg/kg/injection, schedule: Q01DX009 (ip), vehicle: suspension in saline) was 108 % of control; the T/C (dose: 100.0 mg/kg/injection, schedule: Q01DX009 (ip), vehicle: suspension in saline) is 100 % of control; the T/C (dose: 200.0 mg/kg/injection, schedule: Q01DX009 (ip), vehicle: suspension in saline) is 105 % of control.
As for `O=C(Nc1ccc(Nc2ccccc2)cc1)Nc1cc([N+](=O)[O-])ccc1Cl`, the T/C is 90 % of control under setting [4], 98 % of control under setting [5] and 103 % of control under setting [6].
As for `CNC(=O)Nc1[nH]c(=O)ncc1Cl`, the T/C was 112 % of control under setting [4] and 113 % of control under setting [5].
For the compound `[Cl][Ge]([c]1ccccc1)[c]1ccccc1.c1cc[c]([GeH][c]2ccccc2)cc1`, the T/C by setting is: under setting [7], 93 % of control; under setting [8], 100 % of control; under setting [9], 103 % of control.
For the compound `Cc1ccc(NN=O)nc1`, the T/C was 151 % of control and 152 % of control (dose: 6.25 mg/kg/injection, schedule: Q01DX009 (ip), vehicle: water); 153 % of control and 183 % of control (dose: 12.5 mg/kg/injection, schedule: Q01DX009 (ip), vehicle: water).
In the case of `O=C(Nc1ccc(Cl)c(Cl)c1)OCc1ccco1`, the T/C reads like this: under setting [10], 105 % of control; under setting [11], 105 % of control.
On to `COC(=O)C1=NC1c1ccc(C)cc1` (stereo unspecified), for which the T/C runs as follows: under setting [1], 104 % of control; under setting [2], 110 % of control; under setting [3], 100 % of control.
Turning to `C=C(C)C(O)CCCO[Si](c1ccccc1)(c1ccccc1)C(C)(C)C` (stereo unspecified), the T/C by setting is: under setting [4], 94 % of control; under setting [5], 95 % of control; under setting [6], 97 % of control.
Consider `CCOC(=O)C1=C(C(=O)c2cccc3ccccc23)C(c2cccc([N+](=O)[O-])c2)C(C(=O)c2cccc3ccccc23)=C(C(=O)OCC)N1`, for which the T/C (dose: 15.0 mg/kg/injection, schedule: Q01DX005 (ip), vehicle: Klucel (hydroxypropylcellulose) (HPC)) was 97 % of control; the T/C (dose: 30.0 mg/kg/injection, schedule: Q01DX005 (ip), vehicle: Klucel (hydroxypropylcellulose) (HPC)) is 97 % of control; the T/C under setting [10] was 99 % of control.
For the compound `CC(=O)CC1CCCC(C#N)N1` (stereo unspecified), the T/C by setting is: (dose: 12.5 mg/kg/injection, schedule: Q01DX005 (ip), vehicle: saline) 97 % of control; (dose: 25.0 mg/kg/injection, schedule: Q01DX005 (ip), vehicle: saline) 101 % of control; (dose: 50.0 mg/kg/injection, schedule: Q01DX005 (ip), vehicle: saline) 100 % of control and 98 % of control.
On to `COC(=O)c1ccccc1N=NN(C)CC1OC2OC(C)(C)OC2C1OC` (stereo unspecified), for which the T/C under setting [1] is 99 % of control, the T/C under setting [2] was 99 % of control and the T/C under setting [3] was 97 % of control.
As for `Cc1cccc(Cl)c1NC(=O)NCCCN1CCCCC1C` (stereo unspecified), the T/C by setting is: under setting [4], 94 % of control; under setting [5], 87 % of control.
As to `COc1ccc(S(=O)(=O)N/N=C/c2cc([N+](=O)[O-])cc(I)c2O)cc1OC`, the T/C runs as follows: under setting [4], 97 % of control; under setting [5], 94 % of control; under setting [6], 91 % of control.
For `O=C(OCCS(=O)(=O)CCOC(=O)ON1C(=O)CCC1=O)ON1C(=O)CCC1=O`, the T/C is 109 % of control under setting [7], 109 % of control under setting [8] and 115 % of control under setting [9].
For `COc1ccc(C2OC(=N)C(=S)N2C)c(OC)c1` (stereo unspecified), the T/C is, setting by setting: under setting [10], 102 % of control; under setting [11], 104 % of control; (dose: 240.0 mg/kg/injection, schedule: Q01DX005 (ip), vehicle: Klucel (hydroxypropylcellulose) (HPC)) 101 % of control.
As for `COc1cc([N+](=O)[O-])c(OC)c2c(=O)[nH]c(=O)[nH]c12`, the T/C by setting is: (dose: 6.25 mg/kg/injection, schedule: Q01DX005 (ip), vehicle: Klucel (hydroxypropylcellulose) (HPC)) 98 % of control; (dose: 12.5 mg/kg/injection, schedule: Q01DX005 (ip), vehicle: Klucel (hydroxypropylcellulose) (HPC)) 90 % of control.
`C#CCNC1=C(C)C(=O)C2=C(C1=O)[C@H](COC(N)=O)[C@]1(OC)[C@@H]3N[C@@H]3CN21`: the T/C runs as follows: (dose: 12.0 mg/kg/injection, schedule: Q01DX001 (ip), vehicle: distilled water + Tween-80) 163 % of control; (dose: 24.0 mg/kg/injection, schedule: Q01DX001 (ip), vehicle: distilled water + Tween-80) 173 % of control; (dose: 48.0 mg/kg/injection, schedule: Q01DX001 (ip), vehicle: distilled water + Tween-80) 165 % of control and 265 % of control; (dose: 96.0 mg/kg/injection, schedule: Q01DX001 (ip), vehicle: distilled water + Tween-80) 203 % of control.
For the compound `CC(C)=O`, the T/C (dose: 2.0 % in 0.5 ml injection vol, schedule: Q01DX009 (ip), vehicle: water) is 97 % of control; the T/C (dose: 4.0 % in 0.5 ml injection vol, schedule: Q01DX009 (ip), vehicle: water) was 100 % of control and 101 % of control; the T/C (dose: 8.0 % in 0.5 ml injection vol, schedule: Q01DX009 (ip), vehicle: water) was 102 % of control and 106 % of control; the T/C (dose: 16.0 % in 0.5 ml injection vol, schedule: Q01DX009 (ip), vehicle: water) is 105 % of control.
As to `NC(=O)c1c(Cl)cccc1Cl`, the T/C was 101 % of control (dose: 12.5 mg/kg/injection, schedule: Q04DX003 (ip), vehicle: saline); 93 % of control (dose: 25.0 mg/kg/injection, schedule: Q04DX003 (ip), vehicle: saline); 99 % of control (dose: 50.0 mg/kg/injection, schedule: Q04DX003 (ip), vehicle: saline); 101 % of control (dose: 100.0 mg/kg/injection, schedule: Q04DX003 (ip), vehicle: saline).
Turning to `COc1ccc(-c2cnnc3c(-c4cccc(C(F)(F)F)c4)cnn23)cc1`, the T/C under setting [7] was 98 % of control, the T/C under setting [8] was 93 % of control and the T/C under setting [9] was 89 % of control.
In the case of `NC(Cc1ccccc1)C(=O)NC(CCC(=O)O)C(=O)NC(CCC(=O)O)C(=O)O` (stereo not drawn) (H-Phe-Glu-Glu-OH; configuration not given here), the T/C by setting is: under setting [7], 103 % of control; under setting [8], 100 % of control; under setting [9], 96 % of control.
